Measured values taken from paper PMC8249783, “A novel multikinase inhibitor SKLB‐YTH‐60 ameliorates inflammation and fibrosis in bleomycin‐induced lung fibrosis mouse models” (Cell Proliferation, 2021).
Values after ≈ are worked out from the molar mass of the structure shown. Like-named read-outs stand apart in the source and are kept apart here.

Key:
[1] = test system: α‐SMA, collagen I and TGF‐β1 mRNA in NIH‐3T3 cells; experiment: Real‐time qPCR of fibrosis markers in TGF‐β1‐treated fibroblasts; assay type: cell-based, mouse; conditions: NIH‐3T3, TGF‐β1 and 2.5 μmol·L^−1 for 24 hours
Experimental: Total RNA of lung tissues or cells was extracted by using AxyPrep Multisource Total RNA Miniprep Kit (Axygen). Reverse transcription was carried out with Evo M‐MLV RT Kit with gDNA Clean (Accurate, AG11711). qRTPCR was conducted using SYBR Green Pro Taq HS (Accurate, AG11701).

[2] = test system: phosphorylation of Smad2/3; experiment: Western blot of TGF‐β1‐induced Smad signalling in fibroblasts; assay type: cell-based; conditions: TGF‐β1, 24 hours
Experimental: Samples of cells and mouse lung tissues were lysed in RIPA buffer with a protease and phosphatase inhibitors (Selleckchem). The protein concentrations in the cell lysate were measured by the Lowry method. Approximately 50 μg of total protein was separated by SDS‐PAGE and then transferred to polyvinylidene fluoride (PVDF) membranes (Amersham Bioscience). After the membranes incubation with the specific primary and secondary antibodies, the reactive bands were detected with enhanced chemiluminescent substrate to horseradish peroxidase.

[3] = test system: Human pulmonary fibroblasts (HPF); experiment: Cell viability assay (CCK8); assay type: cell-based; conditions: 24‐72 hours
Experimental: (§1) The cell viability of YTH‐60 and Nintedanib treatment was performed by MTT and CCK8 assay. Briefly, the exponentially growing cells were seeded in 96‐well (2‐5 × 10^3 cells·well^−1) and cultured for 24 hours. The cells were treated with different concentrations of YTH‐60 (0, 0.625, 1.25, 2.5, 5, 10 µmol·L^−1), after treatment for 24, 48 and 72 hours, respectively, a volume of 20 μL of 5 mg·mL^−1 MTT solution or 10 μL CCK‐8 solution was added to each well and incubation for 2‐4 hours at 37°C. Finally, the 96‐well plates were read on Multiskan FC microplate spectrophotometer at 570 or 450 nm wavelength.

[4] = test system: MRC‐5 human embryo lung fibroblast; experiment: Cell viability assay (CCK8); assay type: cell-based; conditions: MRC‐5, 24‐72 hours
Experimental: as §1

[5] = test system: NIH‐3T3 (mouse embryonic fibroblast); experiment: Cell viability assay (CCK8); assay type: cell-based; conditions: NIH‐3T3, 24‐72 hours
Experimental: as §1

[6] = test system: TNF‐α, IFN‐γ, IL‐2, IL‐4, IL‐10 and IL‐17A; experiment: Serum cytokines in BLM mice (Th1/Th2/Th17 Cytokine Kit); assay type: in vivo, C57BL/6 mice; conditions: day 14
Experimental: (§2) Male C57BL/6 mice (8‐10 weeks old) were purchased from HFK Bioscience Co. Ltd. All animal experiments were permitted by the Institutional Animal Care and Treatment Committee of Sichuan University in China (New Permit Number: 20190524003). Lung fibrosis was induced using BLM treatment (2 mg·kg^−1). All C57BL/6 mice were divided into five groups (n = 10): a BLM + Nintedanib group (Nintedanib, 30 mg·kg^−1), a BLM + YTH‐60 group (YTH‐60, 15 mg·kg^−1 and 30 mg·kg^−1), a control group (Sham), and a bleomycin group (Vehicle). At the beginning, the mice were anaesthetized using 10% chloral hydrate, dissolved BLM with saline and administered intratracheally. To evaluate the preventive effect, the next day after BLM challenge, YTH‐60 and Nintedanib were administered intraperitoneally daily for 13 days (fibroproliferation) to the mice. All mice were sacrificed 24 hours after the last drug injection, the lungs and other organs were taken for the subsequent analysis. To test the therapeutic effect, after the 7th day of BLM treatment, mice were injected intraperitoneally with YTH‐60, Nintedanib and vehicle daily for 7 consecutive days (fibroproliferation).
IL‐2, IL‐4, IL‐10, IL‐17A, TNF‐α and IFN‐γ levels in mouse serum were determined using a mouse Th1/Th2/Th17 Cytokine Kit (BD Biosciences) according to the manufacturer's instructions. […]

[7] = Determination of thermodynamic solubility; assay type: physicochemical; conditions: for solubility at 5 min: thermodynamic from solid, double testing
Experimental: Weigh about 1 mg of the test compound into 1.5 mL centrifuge tube and add 0.5 mL various solvents, sonicating for 5 minutes (if the compound is completely dissolved, then added again test compound until a little solid remains). Take the supernatant after centrifugation, diluting to a suitable concentration using and measuring absorbance values by UV spectrophotometer. Weigh 10 mg compound accurately of the test compound into 1.5 mL centrifuge tube and add 1.2 mL methanol solution to prepare 8.3 mg·mL^−1 mother solution. Take the above described mother liquor to prepare the solution in concentrations of 8.3, 4.2, 2.1, 1.0, 0.52, 0.26 mg·mL^−1 then measure absorbance value. With concentration c (mg·mL^−1) as the abscissa, absorbance A as the ordinate, mapping and fitting line to get the standard curve (The correlation coefficient should be greater than 0.998). Calculate solubility according to the standard curve of the linear equation.

[8] = test system: BLM‐induced pulmonary fibrosis; experiment: BLM‐induced pulmonary fibrosis mouse model, preventive treatment; assay type: in vivo, C57BL/6 mice; conditions: mice, day 14
Experimental: as §2, with “To test the therapeutic effect, after the 7th day of BLM treatment, mice were injected intraperitoneally with YTH‐60, Nintedanib and vehicle daily for 7 consecutive days (fibroproliferation).” left out
The left lung was detached and immediately fixed in 4% paraformaldehyde for 72 hours and then embed with paraffin wax. […] Ashcroft scoring was used to examine the severity of pulmonary fibrosis. ^20 The image analysis‐based system to quantify collagen deposition was described previously. ^21 […]

LO2 cells = experiment: Cytotoxicity in normal human liver cell line; assay type: cell-based; conditions: 24 hours exposure
Experimental: as §1

## COc1cc(OC)c(Cl)c(-c2ccc3c(/C=C/c4ccc(N(C)C(=O)CN5CCN(C)CC5)cc4)n[nH]c3c2)c1Cl [YTH‐60, (E)‐N‐(4‐(2‐(6‐(2,6‐dichloro‐3,5‐dimethoxyphenyl)‐1H‐indazol‐3‐yl)vinyl)phenyl)‐N‐methyl‐2‐(4‐methylpiperazin‐1‐yl)acetamide]
[1]
  mRNA levels of α‐SMA, collagen I and TGF‐β1 (in words): reduced this effect
[2]
  TGF‐β1‐induced phosphorylation of Smad2/3 (in words): significantly reduced this phosphorylation
[3]
  cell proliferation / viability (in words): inhibits cell proliferation in a time‐ and concentration‐dependent manner
[4]
  cell proliferation / viability (in words): inhibits cell proliferation in a time‐ and concentration‐dependent manner
[5]
  cell proliferation / viability (in words): inhibits cell proliferation in a time‐ and concentration‐dependent manner
[6]
  inflammatory cytokines in serum (in words): reduced the expression level of these inflammatory cytokines
[7]
  solubility compared with Nintedanib (in words): better solubility than Nintedanib
[7]; organic solvent or mixture, Acetone, read-out: Solubility, Acetone
  solubility at 5 min: 83.1 ± 0.89 mg/mL (≈ 140 mM)
[7]; organic solvent or mixture, Acetonitrile, read-out: Solubility, Acetonitrile
  solubility at 5 min: 18.3 ± 1.2 mg/mL (≈ 30.8 mM)
[7]; organic solvent or mixture, Ethyl acetate, read-out: Solubility, Ethyl acetate
  solubility at 5 min: 101 ± 4.02 mg/mL (≈ 170 mM)
[7]; organic solvent or mixture, Ethyl alcohol, read-out: Solubility, Ethyl alcohol
  solubility at 5 min: 77 ± 1.53 mg/mL (≈ 130 mM)
[7]; saline or isotonic, Normal saline, read-out: Solubility, Normal saline
  solubility at 5 min: 12.7 ± 0.15 mg/mL (≈ 21.4 mM)
[7]; Water, read-out: Solubility, Water
  solubility at 5 min: 1.71 ± 0.14 mg/mL (≈ 2.88 mM)
[8]; 15 mg·kg^−1 i.p.
  preventive effect on BLM‐induced pulmonary fibrosis (in words): less effective
[8]; 30 mg·kg^−1 i.p.
  preventive effect on BLM‐induced pulmonary fibrosis (in words): good preventive effect
LO2 cells
  cytotoxicity, viability of LO2 cells (in words): inhibited the viability of LO2 cells less than Nintedanib
